The subject of one assay is human glomerulonephritis. The conditions noted are these: clinical trial; cited from earlier work.
The subject of a further assay is apoE-deficient mice. The conditions noted are these: cited from earlier work.
For assay [1], the target named is T1, recombinant human FLAP protein (Homo sapiens, UniProt P20292).
T1 construct: made in house; host or cells: Sf9 insect cells (membrane fraction, 100,000 x g pellet)
T1 sequence (P20292 1-161): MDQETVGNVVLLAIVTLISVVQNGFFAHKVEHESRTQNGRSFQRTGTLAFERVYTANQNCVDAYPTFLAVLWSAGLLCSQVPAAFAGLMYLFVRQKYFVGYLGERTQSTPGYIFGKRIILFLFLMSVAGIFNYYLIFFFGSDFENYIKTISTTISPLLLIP
Briefly: FLAP binding assay, displacement of iodinated (125I) FLAP inhibitor, Scintillation Proximity Assay format. The conditions noted are these: [125I]L-691,831 probe, membrane protein from sf9 cells; read-out: hFLAP binding IC50. How it is done:
Compounds are assessed for the ability to bind to FLAP in a binding assay that measures compound-specific displacement of an iodinated (^125I) FLAP inhibitor via a Scintillation Proximity Assay format (adapted from S. Charleson et al., Mol. Pharmacol., 1992, 41, 873-879).
Cell pellets produced from sf9 insect cells expressing recombinant human FLAP protein are resuspended in buffer A [15 mM Tris-HCl (pH 7.5), 2 mM MgCl2, 0.3 mM EDTA, 1 mM PMSF]. The cells are lysed with a Dounce homogenizer and the material is centrifuged at 10,000×g for 10 minutes. The supernatant is then collected and centrifuged at 100,000×g for 60 minutes. To prepare membrane protein for an assay, an aliquot of the 100,000×g pellet is resuspended in 1 ml of buffer A, Dounce homogenized, and finally subjected to polytron mixing (30 seconds). Membrane protein (25 μl, 5 μg) is mixed with WGA SPA beads (Amersham) and stirred for 1 h. To an assay plate (Perkin Elmer FlexiPlate) is added 25 μl of test compound prepared in Binding buffer [100 mM Tris (pH 7.5), 140 mM NaCl, 5% glycerol, 2 mM EDTA, 0.5 mM TCEP, 0.05% Tween 20], 25 μl of [^125I]L-691,831 (an iodinated analog of MK-591, Charleson et al. Mol. Pharmacol., 41, 873-879, 1992) and finally 50 μl of the bead/protein mixture. (final concentrations: beads, 200 μg/well; protein, 5 μg/well; [^125I] probe, 0 08 nM/well (17 nCi/well). The plates are shaken for 2 h before reading on a Microbeta plate reader. Non-specific binding is determined by the addition of 10 μM cold L-691,831 compound.

The test system of assay [2] is biomarkers for myocardial infarction risk. The conditions noted are these: clinical trials; cited from earlier work.
Assay [3] has as its system apoE/LDL-R double knockout mice. The conditions noted are these: oral dosing, high-fat diet from 2 months of age to 6 months; cited from earlier work.
In another assay the test system is ApoE−/−xCD4dnTβRII mice. The conditions noted are these: via infusion, treated for four weeks; cited from earlier work.

As a reminder, the IC50 is the concentration needed to halve the response being measured.

With `CC(C)(C)Sc1c(CC(C)(C)C(=O)O)n(Cc2ccc(Cl)cc2)c2ccc(OCc3ccc4ccccc4n3)cc12` [MK-591], the effect on proteinuria result with human glomerulonephritis is listed as “reduce proteinuria”.
For the compound `C[C@H](C#Cc1ccc(Cc2ccc(F)cc2)s1)N(O)C(N)=O` [VIA-2291], the effect on atherosclerosis entry in the assay with apoE-deficient mice is given as “attenuate atherosclerosis”.
For `COc1ccc(-n2cc(Cl)cn2)c(-c2nc3cc(-c4cnc(N)nc4)ccc3n2C(C)(C)C)c1` [5-{1-tert-Butyl-2-[2-(4-chloro-pyrazol-1-yl)-5-methoxy-phenyl]-1H-benzimidazol-5-yl}-pyrimidin-2-ylamine], the concentration for half-maximal inhibition (IC50) in assay [1] stood at 1.6 nM.
Turning to `O=C(O)[C@@H](c1ccc(OCc2ccc3ccccc3n2)cc1)C1CCCC1` [DG-031], in assay [2], the “effect on biomarkers for myocardial infarction risk” value is “dose-dependent suppression of several biomarkers”.
With `COc1ccc(-c2nc(C)no2)c(-c2nc3cc(-c4cnc(N)nc4)ccc3n2C(C)(C)C)c1` [5-{1-tert-Butyl-2-[5-methoxy-2-(3-methyl-1,2,4-oxadiazol-5-yl)-phenyl]-1H-benzimidazol-5-yl}-pyrimidin-2-ylamine], the 50% inhibitory concentration (IC50) in assay [1] was determined as 24 nM.
On the same count and under the same terms, with `CC(C)(C)n1c(-c2ccccc2-c2ncn(CC#N)n2)nc2cc(-c3cnc(N)nc3)ccc21` [(3-{2-[5-(2-Amino-pyrimidin-5-yl)-1-tert-butyl-1H-benzoimidazol-2-yl]-phenyl}-[1,2,4]triazol-1-yl)-acetonitrile] the figure was 4.2 nM; with `COC(=O)c1cc(-c2ccc(-n3cncn3)c(-c3nc4cc(-c5cnc(N)nc5)ccc4n3C(C)(C)C)c2)cs1` [4-{3-[5-(2-Amino-pyrimidin-5-yl)-1-tert-butyl-1H-benzoimidazol-2-yl]-4-[1,2,4]triazol-1-yl-phenyl}-thiophene-2-carboxylic acid methyl ester], 5.2 nM.
Still for that read-out and setting: as for `CC(C)(C)n1c(-c2cc(S(C)(=O)=O)ccc2-n2cncn2)nc2cc(-c3cnc(N)nc3)ccc21` [5-[1-tert-Butyl-2-(5-methanesulfonyl-2-[1,2,4]triazol-1-yl-phenyl)-1H-benzoimidazol-5-yl]-pyrimidin-2-ylamine], the figure is 36.8 nM.
Same read-out and setting: as for `CC(C)(C)n1c(-c2cc(Cl)ccc2-n2cncn2)nc2cc(-c3cnc(N)nc3)ccc21` [5-[1-tert-Butyl-2-(5-chloro-2-1,2,4-triazol-1-yl-phenyl)-1H-benzimidazol-5-yl]-pyrimidin-2-ylamine], the figure is 3 nM; as for `CC(C)(C)n1c(-c2ccc(OC3CCOC3)cc2-n2cncn2)nc2cc(-c3cnc(N)nc3)ccc21` (stereo not drawn) [5-{1-tert-Butyl-2-[4-(tetrahydro-furan-3-yloxy)-2-1,2,4-triazol-1-yl-phenyl]-1H-benzimidazol-5-yl}-pyrimidin-2-ylamine], 10.6 nM.
As for `CC(C)c1ccc2c(c1)c(SC(C)(C)C)c(CC(C)(C)C(=O)O)n2Cc1ccc(Cl)cc1` [MK-886], in assay [3], the “decrease in plaque coverage in the aorta” value was 56% and the “decrease in plaque coverage in the aortic root” value is recorded as 43%. For the same compound, in the assay with ApoE−/−xCD4dnTβRII mice, the “decrease in plaque area in the aortic root” value is given as roughly 40%.
Turning to `COc1ccc(-n2ncnc2C)c(-c2nc3cc(-c4cnc(N)nc4)ccc3n2C(C)(C)C)c1` [5-{1-tert-Butyl-2-[5-methoxy-2-(5-methyl-1,2,4-triazol-1-yl)-phenyl]-1H-benzimidazol-5-yl}-pyrimidin-2-ylamine], in assay [1], the IC50 came out at 1.5 nM.
Still for that read-out and setting: as for `COc1ccc(-n2cccn2)c(-c2nc3cc(-c4cnc(N)nc4)ccc3n2C(C)(C)C)c1` [5-[1-tert-Butyl-2-(5-methoxy-2-pyrazol-1-yl-phenyl)-1H-benzimidazol-5-yl]-pyrimidin-2-ylamine], the figure is 5.2 nM; as for `CC(C)(C)n1c(-c2ccccc2-c2ccno2)nc2cc(-c3cnc(N)nc3)ccc21` [5-[1-tert-butyl-2-(2-isoxazol-5-yl-phenyl)-1H-benzoimidazol-5-yl]-pyrimidin-2-ylamine], 2.4 nM.
Still for that read-out and setting: as for `CC(C)(C)n1c(-c2cc(CO)ccc2-n2cncn2)nc2cc(-c3cnc(N)nc3)ccc21` [{3-[5-(2-Amino-pyrimidin-5-yl)-1-tert-butyl-1H-benzoimidazol-2-yl]-4-[1,2,4]triazol-1-yl-phenyl}-methanol], the figure is 10.4 nM.
Same read-out and setting: as for `Cn1nnc(-c2ccccc2-c2nc3cc(-c4cnc(N)nc4)ccc3n2C(C)(C)C)n1` [5-{1-tert-Butyl-2-[2-(2-methyl-2H-tetrazol-5-yl)-phenyl]-1H-benzimidazol-5-yl}-pyrimidin-2-ylamine], the figure is 1.3 nM; as for `CC(C)(C)n1c(-c2cc(-c3nn[nH]n3)ccc2-n2cncn2)nc2cc(-c3cnc(N)nc3)ccc21` [5-{1-tert-Butyl-2-[5-(2H-tetrazol-5-yl)-2-[1,2,4]triazol-1-yl-phenyl]-1H-benzoimidazol-5-yl}-pyrimidin-2-ylamine], 4.6 nM; as for `CC(C)(C)n1c(-c2cc(-c3csc(C(=O)O)c3)ccc2-n2cncn2)nc2cc(-c3cnc(N)nc3)ccc21` [4-{3-[5-(2-Amino-pyrimidin-5-yl)-1-tert-butyl-1H-benzoimidazol-2-yl]-4-[1,2,4]triazol-1-yl-phenyl}-thiophene-2-carboxylic acid], 10.6 nM.
For `Cc1c(-c2ccc(-n3cncn3)c(-c3nc4cc(-c5cnc(N)nc5)ccc4n3C(C)(C)C)c2)cnn1C` [5-{1-tert-Butyl-2-[5-(1,5-dimethyl-1H-pyrazol-4-yl)-2-[1,2,4]triazol-1-yl-phenyl]-1H-benzoimidazol-5-yl}-pyrimidin-2-ylamine], the IC50 in assay [1] is 4 nM.
The same measure, in the same setting: as for `CC(C)(C)n1c(-c2ccccc2-n2cncn2)nc2cc(-c3cnc4c(c3)CCN4)ccc21` [1-tert-Butyl-5-(2,3-dihydro-1H-pyrrolo[2,3-b]pyridin-5-yl)-2-(2-1,2,4-triazol-1-yl-phenyl)-1H-benzimidazole], the figure is 2.1 nM.
The same measure, in the same setting: with `CC(C)(C)n1c(-c2cc(Br)ccc2-n2cncn2)nc2cc(-c3cnc(N)nc3)ccc21` [5-[2-(5-Bromo-2-1,2,4-triazol-1-yl-phenyl)-1-tert-butyl-1H-benzimidazol-5-yl]-pyrimidin-2-ylamine] the figure was 4.5 nM; with `Cc1ncn(-c2ccc(Cl)cc2-c2nc3cc(-c4cnc(N)nc4)ccc3n2C(C)(C)C)n1` [5-{1-tert-Butyl-2-[5-chloro-2-(3-methyl-1,2,4-triazol-1-yl)-phenyl]-1H-benzimidazol-5-yl}-pyrimidin-2-ylamine], 1.4 nM.
The same measure, in the same setting: as for `COc1ccc(-c2nc3cc(-c4cnc(N)nc4)ccc3n2C(C)(C)C)c(-n2cncn2)c1` [5-[1-tert-Butyl-2-(4-methoxy-2-1,2,4-triazol-1-yl-phenyl)-1H-benzimidazol-5-yl]-pyrimidin-2-ylamine], the figure is 2.9 nM; as for `CC(C)(C)n1c(-c2cc(F)ccc2-n2cncn2)nc2cc(-c3cnc(N)nc3)ccc21`, 1.4 nM; as for `CC(C)(C)n1c(-c2cc(F)ccc2-n2cccn2)nc2cc(-c3cnc(N)nc3)ccc21` [5-[1-tert-Butyl-2-(5-fluoro-2-pyrazol-1-yl-phenyl)-1H-benzimidazol-5-yl]-pyrimidin-2-ylamine], 1.7 nM.
`Cn1ncnc1-c1ccc(F)cc1-c1nc2cc(-c3cnc(N)nc3)ccc2n1C(C)(C)C` [5-{1-tert-Butyl-2-[5-fluoro-2-(2-methyl-2H-1,2,4-triazol-3-yl)-phenyl]-1H-benzimidazol-5-yl}-pyrimidin-2-ylamine]: the half-maximal inhibitory concentration (IC50) in assay [1] came out at 1.6 nM.
Still for that read-out and setting: with `CC(C)(C)n1c(-c2ccccc2-n2ccc(C(F)(F)F)n2)nc2cc(-c3cnc(N)nc3)ccc21` [5-{1-tert-Butyl-2-[2-(3-trifluoromethyl-pyrazol-1-yl)-phenyl]-1H-benzimidazol-5-yl}-pyrimidin-2-ylamine] the figure was 4.5 nM; with `CNC(=O)c1ccc(-n2cncn2)c(-c2nc3cc(-c4cnc(N)nc4)ccc3n2C(C)(C)C)c1` [3-[5-(2-Amino-pyrimidin-5-yl)-1-tert-butyl-1H-benzoimidazol-2-yl]-N-methyl-4-[1,2,4]triazol-1-yl-benzamide], 20 nM.

Values taken from US8420655B2, “Benzimidazole inhibitors of leukotriene production” (Boehringer Ingelheim International GmbH, priority 2009, dated 2013).
